# Experimental data from US20100249138A1, “MPZP: A SMALL MOLECULE CORTICOTROPIN-RELEASING FACTOR TYPE 1 RECEPTOR (CRF1) ANTOGONIST” (priority 2007, published 2010).
# Entries after “also recorded” stand apart in the source; their conditions may differ.
# Columns and labels:
# [1] = tested on: cocaine self-administration; experiment: Cocaine self-administration in short access (ShA) and long access (LgA) rats; type: in vivo, rat
# [2] = cited from earlier work
# plasma ACTH = settings: 20 mg/kg i.p.; cited from earlier work
# [3] = tested on: cocaine self-administration; settings: 30 minute pretreatment; limited (2 hour) daily drug access; cited from earlier work
# [4] = tested on: intracerebroventricular CRF-induced anxiogenic-like behavior; settings: 20 mg/kg i.p.; cited from earlier work
# [5] = tested on: defensive withdrawal behavior; settings: 20 mg/kg i.p.; cited from earlier work
# [6] = tested on: ethanol self-administration; settings: cited from earlier work
# [7] = cLogP, Advanced Chemistry Development Software Solaris V4.67; settings: from cLogP
# [8] = in vivo; cited from earlier work
smiles,measurement,setting,value
"CCCCN(CC)c1nc(C)nc2c1c(C)c(C)n2-c1c(C)cc(C)cc1C.Cl [antalarmin, N-Butyl-N-ethyl-2,5,6-trimethyl-7-(2,4,6-trimethyl-phenyl)-7H-pyrrolol[2,3-d]pyrimidin-4-amine hydrochloride]",slope of linear trend dose function on cocaine intake,[1]; LgA rats,−0.32
same,decrease of cocaine intake compared to vehicle pretreatment,"[1]; LgA rats, 25 mg/kg i.p., 80 minutes before 1 hour session",13.3%
same,cocaine intake compared with vehicle,"[1]; LgA rats, 25 mg/kg i.p., hydrochloride, 25 mg/kg",significant decrease; also recorded: significantly decreased
same,slope of linear trend dose function on cocaine intake,[1]; ShA rats,0.01394
same,cocaine intake compared to vehicle pretreatment,"[1]; ShA rats, antalarmin 6.25-25 mg/kg i.p., hydrochloride",no dose significantly altered cocaine intake; also recorded: without significantly altering
same,aqueous solubility,[2],poor
same,CRF-induced increases in plasma ACTH levels,plasma ACTH,blocked
same,dose-response function of cocaine self-administration,[3],did not alter
same,intracerebroventricular CRF-induced anxiogenic-like behavior in the elevated plus maze,[4],inhibit
same,spontaneous defensive withdrawal behavior,[5],inhibit
same,escalated ethanol intake,"[6]; ethanol-dependent rats, acute withdrawal, 20 mg/kg i.p.",dose-dependently reduced
same,ethanol self-administration,[6]; nondependent rats,did not influence
same,more hydrophobic than MPZP (fold),[7],"~30,000 fold"
same,more hydrophobic than MPZP (orders),[7],approximately 4.5 orders
same,bioavailability,[8],low
